T1: paAzoR1 (Pseudomonas aeruginosa, UniProt Q9I5F3)
T1 sequence (Q9I5F3 1-212): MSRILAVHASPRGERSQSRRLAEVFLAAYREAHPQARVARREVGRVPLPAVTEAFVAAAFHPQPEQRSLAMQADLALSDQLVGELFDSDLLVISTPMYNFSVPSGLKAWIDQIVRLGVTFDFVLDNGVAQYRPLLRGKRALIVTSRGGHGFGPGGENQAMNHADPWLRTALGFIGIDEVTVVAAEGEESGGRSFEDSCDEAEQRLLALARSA

B1: paAzoR1 (Pseudomonas aeruginosa PAO1) (protein)
chain: T1 sequence (Q9I5F3 1-212)

What was measured:
paAzoR1 = molecular target: T1, paAzoR1; assay: X-ray crystal structure, […] Å; format: binding; conditions: complex with nitrofurazone; FMN in active site
purified protein = substrate: NC(=O)N/N=C/c1ccc([N+](=O)[O-])o1; assay: purified protein; conditions: 750 μM NADPH, 20 mM Tris-HCl pH 8.0, 100 mM NaCl

Molecule	X-ray crystal structure, 2.08 Å (paAzoR1)	Km (purified protein) [µM]
Cc1cc2nc3c(=O)[nH]c(=O)nc-3n(C[C@H](O)[C@H](O)[C@H](O)COP(=O)(O)O)c2cc1C [FMN]	The FMN is shown with yellow carbon atoms	–
B1	–	15.7 ± 1.6

— article PMC3216550 (Scientific Reports, 2011)
